{
  "source": "patent US20070021506A1",
  "about": "“Stress relieving composition” (Ajinomoto Co., Inc., priority 2004, published 2007)",
  "origin": "cited, not measured here",
  "key": {"5HT-4 receptor": {"target": "T1, 5HT-4 receptor (Rattus norvegicus, UniProt Q62758)", "T1 construct": "suppressed anxiety disorder of rats induced by a 5HT-4 receptor agonist; from tissue; host or cells: living rats (whole animal; oral L-lysine, s.c. agonist)", "T1 sequence (Q62758 whole entry)": "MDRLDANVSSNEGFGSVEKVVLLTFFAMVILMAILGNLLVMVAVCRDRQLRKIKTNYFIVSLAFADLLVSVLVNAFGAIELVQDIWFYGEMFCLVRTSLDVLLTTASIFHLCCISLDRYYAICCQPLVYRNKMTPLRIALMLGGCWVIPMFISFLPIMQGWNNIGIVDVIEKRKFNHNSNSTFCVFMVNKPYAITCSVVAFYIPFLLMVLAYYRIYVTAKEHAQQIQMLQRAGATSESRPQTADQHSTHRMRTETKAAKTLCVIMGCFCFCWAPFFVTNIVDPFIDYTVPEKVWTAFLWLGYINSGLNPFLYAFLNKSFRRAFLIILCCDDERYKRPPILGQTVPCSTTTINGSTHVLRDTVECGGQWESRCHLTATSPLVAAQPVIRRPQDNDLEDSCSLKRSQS"}, "benzodiazepine receptor": {"test_system": "benzodiazepine receptor", "conditions": "Non-patent document 9"}, "5-HT4 receptor": {"target": "T2, 5-HT4 receptor (Cavia porcellus, UniProt O70528)", "T2 construct": "from tissue; host or cells: guinea pig ileum", "T2 sequence (O70528 whole entry)": "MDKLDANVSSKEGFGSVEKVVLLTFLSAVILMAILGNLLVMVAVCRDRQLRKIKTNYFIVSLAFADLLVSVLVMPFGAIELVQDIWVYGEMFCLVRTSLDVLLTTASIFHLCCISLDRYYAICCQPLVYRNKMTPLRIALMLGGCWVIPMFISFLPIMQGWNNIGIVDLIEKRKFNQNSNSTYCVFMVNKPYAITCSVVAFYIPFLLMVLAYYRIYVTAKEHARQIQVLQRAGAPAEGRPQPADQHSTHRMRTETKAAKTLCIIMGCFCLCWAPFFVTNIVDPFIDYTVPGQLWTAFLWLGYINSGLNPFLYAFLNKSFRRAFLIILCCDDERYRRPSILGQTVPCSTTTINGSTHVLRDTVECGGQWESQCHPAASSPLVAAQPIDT", "conditions": "in vitro"}},
  "note": "Read-outs that look alike come from different tables or passages of the source.",
  "data": [
    {"smiles": "N[C@@H](Cc1ccc(O)cc1)C(=O)O", "note": "[Tyr, tyrosine]", "values": [
      {"measurement": "mood", "setting": "normal subjects exposed to mental stress", "value": "improved the mood significantly"},
      {"measurement": "effect in terms of mood criterion", "setting": "patients with depression", "value": "a significant effect in terms of mood criterion was not observed"}
    ]},
    {"smiles": "NCCCC[C@H](N)C(=O)O", "note": "[L-lysine]", "values": [
      {"measurement": "anxiety disorder of rats induced by a 5HT-4 receptor agonist", "setting": "5HT-4 receptor; 1 g/kg, p.o., agonist 3.0 mmol/l s.c.", "value": "significantly suppressed"},
      {"measurement": "action at 5HT-4 receptor", "setting": "5HT-4 receptor; rat, in vivo", "value": "partially serves as a 5HT-4 receptor antagonist"},
      {"measurement": "action at benzodiazepine receptor", "setting": "benzodiazepine receptor", "value": "benzodiazepine receptor agonist"},
      {"measurement": "5-HT-induced contraction of the guinea pig ileum", "setting": "5-HT4 receptor; 0.07 mmol/dl, P<0.05", "value": "blocked"},
      {"measurement": "5-HT-induced contraction of the guinea pig ileum", "setting": "5-HT4 receptor; 0.7 mmol/dl, P<0.01", "value": "blocked"}
    ]},
    {"smiles": "N[C@@H](Cc1c[nH]c2ccccc12)C(=O)O", "note": "[Trp, tryptophan]", "values": [
      {"measurement": "mood enhancement effect", "setting": "clinical study conducted recently (Non-patent document 3)", "value": "could not be fully supported"},
      {"measurement": "stress-induced mood", "setting": "comparative clinical study, taken alone or together with carbohydrates", "value": "relieved"}
    ]}
  ]
}
